In US4109011A, “Insecticide carbamates of N-(polychloroallyl)-amino-phenols” (priority 1975, dated 1978):
Read-outs that look alike come from different tables or passages of the source.

How the values were obtained:
Culex Pipiens = assay: Biological activity on Culex pipiens (mosquito larvae in aqueous dispersion); type: in vivo
Description: Biological Activity on Culex Pipiens (Diptera)
Mosquito larvae of the third and fourth ages were introduced into glass pots containing an aqueous dispersion of the compounds shown at 2 ppm and 0.2 ppm.
(§1) To show the variation in activity from one compound to another, depending on the species used, the activities of compounds according to this invention were investigated at different concentrations, expressed as percent of active principle, on various infesting species. The mortality percentage was computed in the same way as in the preceding examples.

Musca Domestica = assay: Biological activity on Musca domestica, topical application to adults; type: in vivo; details: 24 h, read-out: Percent of Mortality
Protocol: Biological Activity on Musca Domestica (Diptera)
Four day old adults were treated by topical application through a microsyringe with 1 mm^3 of an acetonic solution of the compounds shown in such concentrations that they received doses of 5γ/insect; 2γ/insect; 0.5γ/insect of active principle. The mortality percentage 24 hours after the treatment is reported in Table 8 (mortality of insects treated with 1 mm^3 of acetone = 0).

[1] = test system: Leptinotarsa Decimlineata; assay: Biological activity on Leptinotarsa decemlineata larvae, sprayed potato seedlings; type: in vivo
Description: Biological Activity on Leptinotarsa Decimlineata Coleoptera
Potato seedlings cultivated in pots were infested with 4-day old larvae and sprayed with an aqueous dispersion of the compounds according to this invention and Aminocarb as a comparison at doses of […]; respectively. The mortality percentage of the control, untreated seedlings, was zero.
as §1

[2] = test system: Leptinotarsa Decimlineata; assay: as above; type: in vivo; details: read-out: Percent of Mortality
[3] = Acute toxicity on white rats, administered orally; details: rat, in vivo, po
Macrosiphum Euphorbiae = assay: Biological activity on Macrosiphum euphorbiae (aphides), potato seedlings sprayed with aqueous dispersion; type: in vivo
Protocol: Biological Activity on Macrosiphum Euphorbiae (Aphides)
Potato seedlings, cultivated in pots, were infested with adult aphide females and, after a few hours, were sprayed with an aqueous dispersion of the compounds listed in Table 6. The mortality percentage was determined 24 hours after the treatment (on control non-treated seedlings, the mortality percentage was 0).
as §1

Pieris Brassicae [4] = assay: Biological activity on Pieris brassicae larvae, sprayed cut cauliflower leaves; type: in vivo
Description: Biological Activity on Pieris Brassicae (Lepidoptera)
Cut leaves of cauliflower were sprayed with an aqueous dispersion of compound according to this invention at a 0.1% concentration. After drying, they were infested with 5-day old larvae. The mortality percentage of the control, untreated leaves, was zero.
as §1

Tetranychus Urticae = assay: Biological activity on Tetranychus urticae eggs, bean leaf discs; type: in vivo; details: topical, read-out: % mort. Tetran. Urt. eggs
Description: Biological Activity on Tetranychus Urticae (Acari)
Small discs of bean leaves were infested with acarus eggs and successively treated by spraying with an aqueous dispersion of a compound of this invention and Aminocarb as a comparison, at concentrations of 0.1 and 0.01%. The mortality percentage of the control, untreated discs, was zero.
as §1

Spodoptera Littoralis [5] = assay: Biological activity on Spodoptera littoralis larvae, sprayed cut tobacco leaves; type: in vivo; details: 48 h, read-out: % mort. Spodopt. Littoralis
Description: Biological Activity on Spodoptera Littoralis (Lepidoptera)
Cut tobacco leaves were sprayed with a 0.1% aqueous dispersion of compounds according to the present invention, shown in Table 12. After drying, the leaves were infested with 5-day old lepidopter larvae. The mortality percentage of the control was zero.
as §1

Pieris Brassicae [6] = assay: Persistence of insecticidal activity in the field, Pieris brassicae on cauliflower plants; type: in vivo; details: 0.5 percent; for mortality at 0.5 %: read-out: Mortality Percent of Pieris Brassicae Larvae
Description: The persistence of insecticidal activity in the field using the insect Pieris brassicae was examined as follows:
Cauliflower plants grown under natural conditions in the field were sprinkled with an aqueous suspension of compounds according to this invention identified hereinabove as M 7361 and M 8157. For purposes of comparison, cauliflower plants were sprinkled with an aqueous suspension of a compound according to U.S. Pat. No. 3,819,678, identified hereinabove as M 7481.
After the respective time periods shown in Table 15, leaves of the sprinkled plants were picked and brought to the laboratory where they were infested with 10-day old larvae of Pieris brassicae and then kept under observation. The percent of mortality of the insects was determined 48 hours after infestation in all cases. The percent mortality of the control, unsprinkled cauliflower leaves, was zero.

Spodoptera Littoralis [7] = assay: Persistence of insecticidal activity in the field, Spodoptera littoralis on Ricinus plants; type: in vivo; details: one percent, read-out: Mortality Percent of Spodoptera Littoralis Larvae
Description: The persistence of insecticidal activity in the field using the insect Spodoptera littoralis was examined as follows:
Ricinus plants grown in the field under natural conditions were sprinkled with an aqueous suspension of the insecticidal compounds according to this invention designated hereinabove as M 7361 and M 8157. For purposes of comparison, an aqueous suspension of each of M 7481 and M 7488, according to U.S. Pat. No. 3,819,678 and identified above, was sprinkled on similarly grown Ricinus plants.
After the time periods shown in Table 16, leaves of the sprinkled plants were picked and brought to the laboratory where they were infested with 10-day old larvae of Spodoptera littoralis and then kept under observation. The mortality percent of the control unsprinkled leaves was zero.

[8] = test system: Leptinotarsa decemlineata; assay: Persistence of insecticidal activity in the field, Leptinotarsa decemlineata on potato plants; type: in vivo; details: 0.2 percent
Description: The persistence of insecticidal activity in the field using the insect Leptinotarsa decemlineata was examined as follows:
Potato plants grown in the field under natural conditions were sprinkled with an aqueous suspension of compound M 7361 which is according to this invention and identified hereinabove. For purposes of comparison, similarly grown potato plants were sprinkled with an aqueous suspension of the compounds M 7488 and M 7481, respectively, both according to U.S. Pat. No. 3,819,678 and identified above.
After the time periods shown in Table 17, leaves of the sprinkled plants were picked and brought to the laboratory where they were infested with 10 day-old larvae of Leptinotarsa decemlineata and then kept under observation. After 48 hours, the percent of mortality of the insects was determined. The mortality percent of the control unsprinkled leaves was zero.

Meloidogyne Incognita = assay: Biological activity on Meloidogyne incognita (nematocide activity, galls on tomato seedlings); type: in vivo; details: vs control
Protocol: Biological Activity on Meloidogyne Incognita (Nematoda)
A 1:1 mixture of field earth and sand infested by new-born larvae and eggs of the nematode was treated by uniformly mixing with a hydroacetone dispersion (20% by vol. of acetone) at a concentration of 0.1% and of 0.02% of the compounds under test so as to get soil samples containing 100 ppm and 20 ppm, respectively, of active principle. The soil was introduced into plastic pots and after 5 days, 5 tomato seedlings about 15 cm high were transplanted into each of them. Fourteen days after transplantation, the roots of the seedlings extracted from the soil were examined in order to determine the degree of infestation by counting the galls which had formed.
The nematocide activity is expressed in Table 13 as the percentage of infestation reduction with respect to the control (seedlings transplanted into the same soil treated with a dispersion free from active principle).

[9] = 24 h, read-out: Percent of Mortality
[10] = read-out: % mort. Macrosiphum Euphorbiae
[11] = read-out: % mort. Leptinot. Decemlin.
[12] = 120 h, 5 days after field treatment
[13] = 216 h, 9 days after field treatment
[14] = 336 h, 14 days after field treatment
[15] = 408 h, 17 days after field treatment
[16] = 528 h, 22 days after field treatment
[17] = 264 h, 11 days after field treatment
[18] = 432 h, 18 days after field treatment
[19] = 600 h, 25 days after field treatment

SMILES | mortality at 2 ppm (Culex Pipiens; [9]) | mortality at 2 µg/insect (Musca Domestica) | mortality at 0.1 % ([1]; read-out: Percent of Mortality) | mortality at 0.01 % [2] | LD50 [3] | period for which insecticidal activity is fully retained in the field (Pieris Brassicae [6]) | mortality at 0.5 % (Pieris Brassicae [6]; 2 hours after field treatment) | mortality at 0.5 % (Pieris Brassicae [6]; [12]) | mortality at 0.5 % (Pieris Brassicae [6]; [13]) | mortality at 0.5 % (Pieris Brassicae [6]; [14]) | mortality at 0.5 % (Pieris Brassicae [6]; [15]) | mortality at 0.5 % (Pieris Brassicae [6]; [16]) | mortality at 1 % (Spodoptera Littoralis [7]; [12]) | mortality at 1 % (Spodoptera Littoralis [7]; [17]) | mortality at 1 % (Spodoptera Littoralis [7]; [14]) | mortality at 1 % (Spodoptera Littoralis [7]; [18]) | mortality at 1 % (Spodoptera Littoralis [7]; [19]) | mortality at 1 % (Spodoptera Littoralis [7]; 2 hours after field treatment) | also measured
CNC(=O)Oc1ccc(C)c(NCC(Cl)=C(Cl)Cl)c1 [M 6738] | 100% | 100% | 100% | 100% | 100 mg/kg | – | – | – | – | – | – | – | – | – | – | – | – | – | mortality at 5 µg/insect (Musca Domestica): 100%
CNC(=O)Oc1cc(C)c(N(C)C)c(C)c1 [Zectran, reference compound] | – | 60% | – | – | – | – | – | – | – | – | – | – | – | – | – | – | – | – | mortality at 0.5 µg/insect (Musca Domestica): 0%
CNC(=O)Oc1cc(C)c(NCC=C(Cl)Cl)c(C)c1 [M 7361] | – | – | – | – | – | at least 22 days | 100% | 100% | 100% | 100% | 100% | 100% | 100% | 100% | 100% | 100% | 100% | 100% | mortality at 0.01 % (Macrosiphum Euphorbiae; [10]): 17%; mortality at 0.1 % (Macrosiphum Euphorbiae; [10]): 81%; mortality at 1 % (Macrosiphum Euphorbiae; [10]): 100%; mortality at 2 ppm (Culex Pipiens; read-out: % mort. Culex Pipiens): 40%; mortality at 0.01 % [1, 11]: 52%; mortality at 0.1 % [1, 11]: 97%; mortality at 1 % [1, 11]: 100%; mortality at 0.01 % (Pieris Brassicae [4]; Table 14, 0.01% a.p., read-out: % mort. Pieris Brassicae): 15%; mortality at 0.1 % (Pieris Brassicae [4]; Table 14, 0.1% a.p., read-out: % mort. Pieris Brassicae): 97%; mortality at 1 % (Pieris Brassicae [4]; Table 14, 1% a.p., read-out: % mort. Pieris Brassicae): 100%; mortality at 1 % (Tetranychus Urticae): 13%; mortality at 0.01 % (Spodoptera Littoralis [5]; Table 14, 0.01% a.p.): 7%; mortality at 0.1 % (Spodoptera Littoralis [5]; Table 14, 0.1% a.p.): 72%; mortality at 1 % (Spodoptera Littoralis [5]; Table 14, 1% a.p.): 100%; mortality at 0.2 % ([8]; 2 hours after field treatment): 100%; mortality at 0.2 % ([8]; 96 h, 4 days after field treatment): 100%; mortality at 0.2 % ([8]; 168 h, 7 days after field treatment): 100%; mortality at 0.2 % [8, 17]: 100%; mortality at 0.2 % [8, 18]: 100%; mortality at 0.2 % [8, 19]: 73%
CNC(=O)Oc1cccc(NCC=C(Cl)Cl)c1 [M 6370] | 94% | – | 100% | 100% | 100 mg/kg | – | – | – | – | – | – | – | – | – | – | – | – | – | mortality at 0.01 % (Macrosiphum Euphorbiae; 24 h, read-out: Mortality Percent): 100%; mortality at 0.2 ppm (Culex Pipiens; [9]): 17%; mortality at 0.1 % (Pieris Brassicae [4]; 0.1 percent, larvae, read-out: Percent of Mortality): 90%; Reduction of Infestation (Meloidogyne Incognita; 20 ppm in soil): 100%; Reduction of Infestation (Meloidogyne Incognita; 100 ppm in soil): 100%
CNC(=O)Oc1cc(C)c(NCC(Cl)=C(Cl)Cl)c(C)c1 [M 8157] | – | – | – | – | – | at least 22 days | 100% | 100% | 100% | 100% | 100% | 100% | 100% | 100% | 100% | 100% | 100% | 100% | –
